Measured values taken from ChEMBL document CHEMBL3046640, “Synthesis and antimicrobial activity of bischalcone derivatives” (2013).
In brackets after ≈: the same amount, converted by molar mass. Activity calls are given as the source filed them. The rule behind the calls is not given here.

Columns and labels:
Assay type in all cases: functional
[1] = test system: Rhizopus arrhizus; assay: Antifungal activity against Rhizopus oryzae MTCC 262 assessed as growth inhibition at 100 ug/mL after 3 to 4 days by agar diffusion method; details: read-out: DIZ
[2] = test system: Aspergillus niger; assay: Antifungal activity against Aspergillus niger ATCC 16404 assessed as growth inhibition at 100 ug/mL after 3 to 4 days by agar diffusion method; details: read-out: DIZ
[3] = test system: Candida albicans; assay: Antifungal activity against Candida albicans ATCC 10231 assessed as growth inhibition at 100 ug/mL after 3 to 4 days by agar diffusion method; details: read-out: DIZ
[4] = test system: Pseudomonas aeruginosa; assay: Antibacterial activity against Pseudomonas aeruginosa ATCC 27853 assessed as growth inhibition at 100 ug/mL after 24 hr by cup-plate method; details: ATCC 27853, 24 h, read-out: DIZ
[5] = test system: Escherichia coli; assay: Antibacterial activity against Escherichia coli ATCC 25922 assessed as growth inhibition at 100 ug/mL after 24 hr by cup-plate method; details: ATCC 25922, 24 h, read-out: DIZ
[6] = test system: Staphylococcus aureus; assay: Antibacterial activity against Staphylococcus aureus ATCC 25923 assessed as growth inhibition at 100 ug/mL after 24 hr by cup-plate method; details: ATCC 25923, 24 h, read-out: DIZ
[7] = test system: Rhizopus arrhizus; assay: Antifungal activity against Rhizopus oryzae MTCC 262 assessed as growth inhibition after 48 hr by broth dilution method
[8] = test system: Aspergillus niger; assay: Antifungal activity against Aspergillus niger ATCC 16404 assessed as growth inhibition after 48 hr by broth dilution method
[9] = test system: Candida albicans; assay: Antifungal activity against Candida albicans ATCC 10231 assessed as growth inhibition after 48 hr by broth dilution method
[10] = test system: Pseudomonas aeruginosa; assay: Antibacterial activity against Pseudomonas aeruginosa ATCC 27853 assessed as growth inhibition after 24 hr by broth dilution method
[11] = test system: Escherichia coli; assay: Antibacterial activity against Escherichia coli ATCC 25922 assessed as growth inhibition after 24 hr by broth dilution method
[12] = test system: Staphylococcus aureus; assay: Antibacterial activity against Staphylococcus aureus ATCC 25923 assessed as growth inhibition after 24 hr by broth dilution method

MIC ([7]; MTCC 262, 48 h) [µg/mL] | MIC ([8]; ATCC 16404, 48 h) [µg/mL] | MIC ([9]; ATCC 10231, 48 h) [µg/mL] | MIC ([10]; ATCC 27853, 24 h) [µg/mL] | MIC ([11]; ATCC 25922, 24 h) [µg/mL] | MIC ([12]; ATCC 25923, 24 h) [µg/mL] | MIC [7] | MIC [8] | MIC [9] | MIC [10] | MIC [11] | MIC [12] | Structure (SMILES) | zone of inhibition at 100 µg/mL [1] [mm] | zone of inhibition at 100 µg/mL [2] [mm] | zone of inhibition at 100 µg/mL [3] [mm] | zone of inhibition at 100 µg/mL [4] [mm] | zone of inhibition at 100 µg/mL [5] [mm] | zone of inhibition at 100 µg/mL [6] [mm]
50 (≈ 114 µM) | 50 (≈ 114 µM) | 50 (≈ 114 µM) | 25 (≈ 56.9 µM) | 50 (≈ 114 µM) | 50 (≈ 114 µM) |  |  |  |  |  |  | O=C(/C=C/c1ccc(Cl)cc1)c1cc(C(=O)/C=C/c2ccc(Cl)cc2)c(O)cc1O | 10 | 10 | 10 | 15 | 10 | 10
50 (≈ 143 µM) | 25 (≈ 71.4 µM) | 12.5 (≈ 35.7 µM) | 12.5 (≈ 35.7 µM) | 12.5 (≈ 35.7 µM) | 25 (≈ 71.4 µM) |  |  |  |  |  |  | O=C(/C=C/c1ccco1)c1cc(C(=O)/C=C/c2ccco2)c(O)cc1O | 10 | 15 | 15 | 15 | 15 | 15
 | > 100 | > 100 |  | 50 (≈ 96.4 µM) | > 100 | inactive |  |  | inactive |  |  | COc1ccc(/C=C/C(=O)c2cc(C(=O)/C=C/c3ccc(OC)c(OC)c3)c(OC)cc2OC)cc1OC | < 5 | 5 | 5 | < 5 | 10 | 5
> 100 | 50 (≈ 144 µM) | 12.5 (≈ 36.1 µM) | 12.5 (≈ 36.1 µM) | 25 (≈ 72.2 µM) | 25 (≈ 72.2 µM) |  |  |  |  |  |  | O=c1cc(-c2ccco2)oc2cc3oc(-c4ccco4)cc(=O)c3cc12 | 5 | 10 | 15 | 15 | 15 | 15

Second part, the molecule before the results:

Structure (SMILES) | MIC ([7]; MTCC 262, 48 h) [µg/mL] | MIC ([8]; ATCC 16404, 48 h) [µg/mL] | MIC ([9]; ATCC 10231, 48 h) [µg/mL] | MIC ([10]; ATCC 27853, 24 h) [µg/mL] | MIC ([11]; ATCC 25922, 24 h) [µg/mL] | MIC ([12]; ATCC 25923, 24 h) [µg/mL] | MIC [7] | MIC [8] | MIC [9] | MIC [10] | MIC [11] | MIC [12] | zone of inhibition at 100 µg/mL [1] [mm] | zone of inhibition at 100 µg/mL [2] [mm] | zone of inhibition at 100 µg/mL [3] [mm] | zone of inhibition at 100 µg/mL [4] [mm] | zone of inhibition at 100 µg/mL [5] [mm] | zone of inhibition at 100 µg/mL [6] [mm]
COC1=CC(=O)C[C@@H](C)[C@]12Oc1c(Cl)c(OC)cc(OC)c1C2=O [GRISEOFULVIN] | 6.25 (≈ 17.7 µM) | 6.25 (≈ 17.7 µM) | 6.25 (≈ 17.7 µM) |  |  |  |  |  |  |  |  |  | > 20 | > 20 | > 20 |  |  | 
CC(=O)c1cc(C(C)=O)c(OC(=O)c2ccccc2C)cc1OC(=O)c1ccccc1C |  |  |  |  |  |  | inactive | inactive | inactive | inactive | inactive | inactive | < 5 | < 5 | < 5 | < 5 | < 5 | < 5
COc1cccc(-c2cc(=O)c3cc4c(=O)cc(-c5cccc(OC)c5)oc4cc3o2)c1 | 25 (≈ 58.6 µM) | 25 (≈ 58.6 µM) | 25 (≈ 58.6 µM) | 50 (≈ 117 µM) | > 100 | 50 (≈ 117 µM) |  |  |  |  |  |  | 15 | 15 | 15 | 10 | 5 | 10
O=C(O)c1cn(C2CC2)c2cc(N3CCNCC3)c(F)cc2c1=O [CIPROFLOXACIN] |  |  |  |  |  |  |  |  |  |  |  |  |  |  |  | > 20 | > 20 | > 20
O=c1cc(-c2ccc(Cl)cc2)oc2cc3oc(-c4ccc(Cl)cc4)cc(=O)c3cc12 | 25 (≈ 57.4 µM) | 50 (≈ 115 µM) | 12.5 (≈ 28.7 µM) | 25 (≈ 57.4 µM) | 25 (≈ 57.4 µM) | 12.5 (≈ 28.7 µM) |  |  |  |  |  |  | 15 | 10 | 15 | 15 | 15 | 15
COc1ccccc1C(=O)Oc1cc(OC(=O)c2ccccc2OC)c(C(C)=O)cc1C(C)=O |  | > 100 |  | > 100 |  |  | inactive |  | inactive |  | inactive | inactive | < 5 | 5 | < 5 | 5 | < 5 | < 5
O=c1c(O)c(-c2ccc(O)c(O)c2)oc2cc(O)cc(O)c12 [QUERCETIN] |  |  | > 100 |  | > 100 | > 100 |  |  |  |  |  |  |  |  |  |  |  | 
